What all share (assay type): biochemical
One assay has as its target T1, tyrosine kinase Mer (Homo sapiens, UniProt Q12866).
T1 construct: purchased Carna 08-108
T1 sequence (Q12866 528-999 limits assumed): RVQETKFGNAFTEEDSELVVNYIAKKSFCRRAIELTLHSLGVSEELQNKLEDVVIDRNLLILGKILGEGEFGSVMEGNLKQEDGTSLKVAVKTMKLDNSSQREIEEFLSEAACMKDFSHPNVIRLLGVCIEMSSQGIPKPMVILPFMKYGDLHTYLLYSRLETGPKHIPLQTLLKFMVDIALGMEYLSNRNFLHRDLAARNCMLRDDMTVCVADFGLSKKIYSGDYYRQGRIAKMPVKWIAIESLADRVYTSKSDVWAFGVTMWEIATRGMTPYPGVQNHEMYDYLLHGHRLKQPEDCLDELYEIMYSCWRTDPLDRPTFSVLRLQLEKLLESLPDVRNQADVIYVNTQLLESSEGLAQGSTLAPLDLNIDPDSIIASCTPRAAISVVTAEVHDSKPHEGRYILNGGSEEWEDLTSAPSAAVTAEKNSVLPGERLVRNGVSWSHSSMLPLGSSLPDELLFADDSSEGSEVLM
The assay is described as follows: HTRF assay, inhibitory activity against tyrosine kinase Mer. As to conditions: ATP at Km (30 μM), two duplicate wells. As to the method:
(§1) Test Example 2: Evaluation of Inhibitory Activity (IC50) of Compounds disclosed herein against Tyrosine Kinases Mer and Tyro3
(§2) In this test, HTRF method was used to test the inhibitory activity of compounds when ATP concentrations correspond to the Km of the kinases. The control substance was RXDX-106. The concentration of test compound was 3-fold diluted from an initial concentration of 10 μM, and two duplicate wells were set.
(§3) Kinase Mer (Carna, Cat. No. 08-108, Lot. No. 14CBS-0421H); Tyro3 (Carna, Cat. No. 08-109, Lot. No. 08CBS-1186H); HTRF kinase-TK kit (Cisbio, Cat. No. 62TK0PEC), the kit comprising: biotin-TK substrate lyophilized powder (Cisbio, Cat. No. 61TK0BLC, Lot. No. 07A), streptavidin-XL665 (Cisbio, Cat. No. 610SAXLG, Lot. No. 126A), TK antibody-cryptate (Cisbio, Cat. No. 610SAXLG, Lot. No. 04A), and detection buffer (including EDTA) (Cisbio, Cat. No. 62TK0PEC, Lot. No. 12A); ATP (Sigma, Cat. No. A7699-5G, CAS No. 34369-07-8, Lot. No. SLBQ6014V); DMSO (Sigma, Cat. No. D5879-1L, Lot. No. SHBH9944); HEPES (Sigma, Cat. No. V900477-500G, CAS No. 7365-45-9, Lot. No. WXBC4716V); MgCl2 (Sigma, Cat. No. 208337-1KG, Lot. No. MKBX9508V); EGTA (Sigma, Cat. No. E3889-100g, CAS 67-42-5, […], Lot. No. SLBG8546V); NP-40 (Beijing Dingguo, Cat. No. DH218, Lot. No. 36R00160); DTT (Sigma, Cat. No. D0632-25g, CAS No. 3483-12-3, Lot. No. SLBF3964V); compound plate (Labcyte, Cat. No. LP0200, Lot. No. 0006386836); assay plate (Greiner, Cat. No. 784075, Lot. No. E16123HM); control substance RXDX-106 (prepared according to the method disclosed in patent WO2013074633).
(§4) 1) Preparation of a buffer: 50 mM HEPES, 10 mM MgCl2, 1 mM EGTA, 0.01% NP-40, 2 mM DTT.
(§5) 2) Preparation of control substance and test samples: RXDX-106 and the compounds disclosed herein were each dissolved in DMSO to 10 mM and then diluted to 1 mM or an appropriate concentration with DMSO, and then serial double dilution was performed using BRAVO (Agilent). 100 nL of each was transferred from a compound plate (Labcyte-LP0200) to an assay plate (Greiner-784075) using ECHO 555 (Labcyte). The final concentration of DMSO was 1%.
(§6) 3) Mer and Tyro3 were each diluted to 0.5 nM and 1.2 nM with the detection buffer (Cisbio, Cat. No. 62TK0PEC, Lot. No. 12A). 5 μL of each was added to a 384-well plate and incubated with the compounds disclosed herein for 30 min at 22-25° C. Final concentrations of Mer and Tyro3 were 0.25 nM and 0.6 nM, respectively.
(§7) 4) Biotin-TK substrate and ATP were each diluted to a concentration twice the final concentration with 1× kinase buffer made up of HEPES, NaN3, BSA and orthovanadate. 5 μL of the mixture of substrate and ATP was added to the 384-well plate to initiate the reaction, which lasts for 1 h at 22-25° C.
(§8) 5) Streptavidin-XL665 and TK antibody-cryptate were diluted to 250 nM and 0.5 nM, respectively, with the detection buffer. […] of each of the two solutions was added to the 384-well plate to initiate the reaction, which lasts for 1 h at 22-25° C. The final concentrations of streptavidin-XL665 and TK antibody-cryptate were 125 nM and 0.25 nM, respectively.
(§9) 6) The fluorescence intensities at 665 nm and 615 nm were read with an Envision Reader (PerkinElmer) .
(§10) 7) IC50 values of the compounds were fitted with XL-fit software.
A general note: Time-resolved FRET reads energy transfer from a long-lived donor to a nearby acceptor.

For the next assay, the target named is T2, tyrosine kinase Tyro3 (Homo sapiens, UniProt Q06418).
T2 construct: purchased Carna 08-109
T2 sequence (Q06418 453-890 limits assumed): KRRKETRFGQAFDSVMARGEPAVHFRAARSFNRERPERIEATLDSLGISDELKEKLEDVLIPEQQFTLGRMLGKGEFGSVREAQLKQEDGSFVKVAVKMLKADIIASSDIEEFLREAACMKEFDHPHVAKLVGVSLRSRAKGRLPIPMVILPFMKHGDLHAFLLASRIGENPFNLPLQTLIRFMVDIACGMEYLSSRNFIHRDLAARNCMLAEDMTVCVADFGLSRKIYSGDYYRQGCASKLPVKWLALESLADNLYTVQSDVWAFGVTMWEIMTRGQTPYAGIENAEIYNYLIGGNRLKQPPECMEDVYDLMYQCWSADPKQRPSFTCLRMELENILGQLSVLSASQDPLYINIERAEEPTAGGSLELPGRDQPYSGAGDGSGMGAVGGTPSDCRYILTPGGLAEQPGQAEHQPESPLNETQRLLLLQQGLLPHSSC
The assay is described as follows: HTRF assay, inhibitory activity against tyrosine kinase Tyro3. As to conditions: ATP at Km (50 μM), two duplicate wells. As to the method: as §1, §2, §3, §4, §5, §6, §7, §8, §9, §10

For a further assay, the target named is T3, kinase Axl (Homo sapiens, UniProt P30530).
T3 construct: purchased Carna 08-107
T3 sequence (P30530 473-894 limits assumed): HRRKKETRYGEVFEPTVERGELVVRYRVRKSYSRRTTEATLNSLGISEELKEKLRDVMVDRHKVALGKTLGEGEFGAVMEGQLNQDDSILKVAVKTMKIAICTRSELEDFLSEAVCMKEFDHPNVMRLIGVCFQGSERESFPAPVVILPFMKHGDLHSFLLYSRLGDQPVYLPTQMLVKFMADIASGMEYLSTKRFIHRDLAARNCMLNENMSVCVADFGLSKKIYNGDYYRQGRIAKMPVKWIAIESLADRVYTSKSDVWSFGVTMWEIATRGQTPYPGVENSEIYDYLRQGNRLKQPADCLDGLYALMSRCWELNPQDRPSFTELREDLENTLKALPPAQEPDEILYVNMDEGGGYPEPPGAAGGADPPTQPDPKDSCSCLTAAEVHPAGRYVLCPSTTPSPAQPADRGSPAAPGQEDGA
Description: Mobility shift assay, inhibitory activity against kinase Axl. As to conditions: ATP at Km (81 μM), average of two independent experiments. As to the method: (§11) In this test, mobility shift assay was used to test the inhibitory activity of compounds when ATP concentrations correspond to the Km of the kinases.
(§12) The concentration of test compound was 10-fold diluted from an initial concentration of 10 μM. The test result (IC50) was the average of two independent experiments.
(§13) For example, a compound at an initial concentration of 10 μM was adjusted to 500 μM with 100% DMSO, then serially diluted for 10 concentrations, and then subjected to 10-fold dilution with the buffer to prepare a diluted compound intermediate containing 10% DMSO, 5 μL of which was transferred to the 384-well plate.
(§14) 10 μL of the two enzyme solutions each was added to the 384-well plate and co-incubated with the compound for 10-15 min at room temperature.
(§15) 10 μL of the diluted substrate was added to the 384-well plate to initiate the reaction, which lasts for 1 h at 28° C.
(§16) 5) The conversion rate was read by Caliper Reader (Perkin Elmer) and the inhibition rate was calculated as the average of two tests.
(§17) 6) IC50 values were fitted with XL-fit software.

The target of a further assay is T4, kinase c-MET (Homo sapiens, UniProt P08581).
T4 construct: purchased Carna 08-151
Description: Mobility shift assay, inhibitory activity against kinase c-MET. As to conditions: ATP at Km (35 μM), average of two independent experiments. As to the method:
as §11, §12, §13, §14, §15, §16, §17

T4 sequence (P08581 956-1390 limits assumed): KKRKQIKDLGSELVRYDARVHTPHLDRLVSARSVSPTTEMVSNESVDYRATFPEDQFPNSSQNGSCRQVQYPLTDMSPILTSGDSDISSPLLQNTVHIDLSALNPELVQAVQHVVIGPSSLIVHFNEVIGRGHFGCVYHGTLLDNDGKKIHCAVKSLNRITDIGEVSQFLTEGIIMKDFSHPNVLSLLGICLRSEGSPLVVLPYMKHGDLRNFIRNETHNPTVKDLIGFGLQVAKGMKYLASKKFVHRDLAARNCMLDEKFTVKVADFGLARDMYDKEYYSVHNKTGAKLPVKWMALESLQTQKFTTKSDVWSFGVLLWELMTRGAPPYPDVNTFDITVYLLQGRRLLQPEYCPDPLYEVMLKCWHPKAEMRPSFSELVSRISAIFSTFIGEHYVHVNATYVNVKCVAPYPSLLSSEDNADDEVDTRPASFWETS

One may read the IC50 as the concentration at which inhibition is half-maximal. `COc1cc2nccc(Oc3ccc(NC(=O)c4cn(C(C)C)c(=O)n(-c5ccc(F)cc5)c4=O)cc3F)c2cc1OC` [RXDX-106, reference compound]: the figures for the IC50 against tyrosine kinase Mer and at tyrosine kinase Tyro3 were 6.4 nM and 3.3 nM, respectively.
Regarding `COc1ccc(-c2cnc(N)c(-c3ccc(NC(=O)c4cn(C(C)C)c(C#N)c(-c5ccc(F)cc5)c4=O)cc3F)c2)cc1OC` [Example 1, N-(4-(2-amino-5-(3,4-dimethoxyphenyl)pyridin-3-yl)-3-fluoro-phenyl)-6-cyano-5-(4-fluorophenyl)-1-isopropyl-4-oxo-1,4-dihydropyridine-3-carboxamide], the IC50 on kinase Axl was found to be 13 nM; on kinase c-MET, 133 nM; on tyrosine kinase Mer, 4.9 nM; on tyrosine kinase Tyro3, 7.51 nM.
The like results for `CCn1cc(-c2cnc(N)c(-c3ccc(NC(=O)c4cn(C5CCC5)c(C#N)c(-c5ccc(F)cc5)c4=O)cc3F)c2)cn1` [Example 9, N-(4-(2-amino-5-(1-ethyl-1H-pyrazol-4-yl)pyridin-3-yl)-3-fluoro-phenyl)-6-cyano-5-(4-fluorophenyl)-1-cyclobutyl-4-oxo-1,4-dihydropyridine-3-carboxamide] were, in that order, 4.6 nM, 70 nM, 1.3 nM and 3 nM.

Values taken from patent US20210355107A1, “MULTI-SUBSTITUTED PYRIDONE DERIVATIVES AND MEDICAL USE THEREOF” (Beijing Yuezhikangtai Biomedicines Co., Ltd., priority 2018, published 2021).
